Experimental data taken from patent US20200247800A1, “SUBSTITUTED BICYCLIC HETEROCYCLIC COMPOUNDS AS NADPH OXIDASE INHIBITORS” (Glenmark Pharmaceuticals S.A., priority 2017, published 2020).
Where a name gives a salt, the structure may show the parent alone.

Molecular target: T1, human NOX4 (Homo sapiens, UniProt Q9NPH5)
T1 construct: expressed in transfected cells; membrane fraction used
T1 sequence (Q9NPH5 1-578): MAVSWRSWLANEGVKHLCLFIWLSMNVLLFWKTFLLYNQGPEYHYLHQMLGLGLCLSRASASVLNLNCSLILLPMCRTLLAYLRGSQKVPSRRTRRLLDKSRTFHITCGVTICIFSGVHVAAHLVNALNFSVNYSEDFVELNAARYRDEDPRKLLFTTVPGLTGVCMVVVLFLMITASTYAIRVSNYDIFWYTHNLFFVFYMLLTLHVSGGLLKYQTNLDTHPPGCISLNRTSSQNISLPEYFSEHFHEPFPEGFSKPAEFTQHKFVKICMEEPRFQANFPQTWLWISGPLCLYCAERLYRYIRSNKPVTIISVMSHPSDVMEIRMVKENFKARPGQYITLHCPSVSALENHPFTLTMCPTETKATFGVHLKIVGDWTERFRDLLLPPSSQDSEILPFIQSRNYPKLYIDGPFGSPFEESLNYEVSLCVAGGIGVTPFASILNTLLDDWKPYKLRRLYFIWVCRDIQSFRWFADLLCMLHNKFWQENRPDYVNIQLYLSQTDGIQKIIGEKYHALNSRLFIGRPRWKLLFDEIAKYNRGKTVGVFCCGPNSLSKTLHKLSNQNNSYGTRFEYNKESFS
T1 sequence (P13498 1-195 partner): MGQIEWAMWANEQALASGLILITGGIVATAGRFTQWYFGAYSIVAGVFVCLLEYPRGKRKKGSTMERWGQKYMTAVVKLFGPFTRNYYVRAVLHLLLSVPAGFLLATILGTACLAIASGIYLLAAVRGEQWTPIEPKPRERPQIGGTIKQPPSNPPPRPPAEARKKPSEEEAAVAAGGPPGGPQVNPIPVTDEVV
Test: Cell free membrane based in vitro NOX4 assay: H2O2 production by membranes expressing human NOX4, measured with Amplex Red
Type: biochemical
Details: for inhibition at 1 µM: 1.0 μM compound, read-out: Percentage inhibition at 1.0 μM; for inhibition at 10 µM: 10.0 μM compound, read-out: Percentage inhibition at 10.0 μM; for IC50: class symbols
Description: The inhibition of NOX4 activity was measured as inhibition of formation of reactive oxygen species (ROS) from oxygen in cell free assays. […] A cell free membrane based in vitro assay was developed by preparing membranes from cells stably overexpressing human NOX4. hNOX4/HEK stable cell line was generated in-house for this purpose. Membranes from stably transfected cells overexpressing human NOX4 were prepared by homogenizing the cells in buffer (20 mM HEPES, 1 mM EGTA, 0.5 mM DTT, 0.5% protease inhibitor cocktail, 1 mM PMSF, pH 7.6), followed by centrifugation at 160000 g for 30 min. Membrane fraction (pellet) was resuspended in storage buffer (homogenization buffer with 10% glycerol and 100 mM NaCl) and stored at −80° C. Protein concentration was determined by Bradford reagent. H202 production by membranes expressing human NOX4 was measured using Amplex Red (Invitrogen) by following a slightly modified version of the manufacturer's instruction manual. Briefly, membranes were incubated in assay buffer (25 mM HEPES, 0.12 M NaCl, 3 mM KCl, 1 mM MgCl2, pH 7.4) with Horse Radish Peroxidase (HRP) and Amplex Red. Reaction was started by addition of […] to the membrane mix. Antagonism of NOX4 inhibitors was measured by incubating the membrane with increasing concentrations of the inhibitors for 20 min on a plate shaker prior to addition of NADPH. H2O2 levels were measured for 10 min in a BMG Fluostar microplate reader with excitation and emission wavelengths of 544 nm and 590 nm respectively. Concentration response curves were plotted as a % of maximal response obtained in the absence of the inhibitor. IC50 value was calculated from concentration response curve by nonlinear regression analysis using GraphPad PRISM software.

inhibition at 1 µM	inhibition at 10 µM	IC50	Structure (SMILES)
3.28%	5.83%		Cc1nn(C)c2oc(-c3ccccc3Cl)c(O)c(=O)c12 [Example 230, 6-(2-chlorophenyl)-5-hydroxy-1,3-dimethylpyrano[2,3-c]pyrazol-4(1H)-one]
73.6%	100%	100 to 150 nM	Cn1nc(C(F)(F)F)c2c(=O)c(O)c(-c3ccncc3Cl)[nH]c21 [Example 46, 6-(3-Chloropyridin-4-yl)-5-hydroxy-1-methyl-3-(trifluoromethyl)-1,7-dihydro-4H-pyrazolo[3,4-b]pyridin-4-one hydrochloride]
83.7%		50 to 100 nM	Cc1nn(CCN2CCN(C)CC2)c2[nH]c(-c3c(F)cccc3F)c(O)c(=O)c12 [Example 169, 6-(2,6-Difluorophenyl)-5-hydroxy-3-methyl-1-(2-(4-methylpiperazin-1-yl)ethyl)-1H-pyrazolo[3,4-b]pyridin-4(7H)-one]
98.3%	87.1%	50 to 100 nM	CC(C)c1nn(C)c2[nH]c(-c3c(F)cccc3F)c(O)c(=O)c12 [Example 91, 6-(2,6-Difluorophenyl)-5-hydroxy-3-isopropyl-1-methyl-1H-pyrazolo[3,4-b]pyridin-4(7H)one]
80.1%	78.2%	50 to 100 nM	Cn1nc(C2CCN(S(C)(=O)=O)CC2)c2c(=O)c(O)c(-c3c(F)cccc3F)[nH]c21 [Example 185, 6-(2,6-Difluorophenyl)-5-hydroxy-1-methyl-3-(1-(methylsulfonyl)piperidin-4-yl)-1H-pyrazolo[3,4-b]pyridin-4(7H)-one]
73.1%		100 to 150 nM	CCn1nc(C)c2c(=O)c(O)c(-c3ccccc3C(F)(F)F)[nH]c21 [Example 143, 1-Ethyl-5-hydroxy-3-methyl-6-(2-(trifluoromethyl)phenyl)-1H-pyrazolo[3,4-b]pyridin-4(7H)-one]
67.3%	72.3%	> 150 nM	Cc1nn(C2CC2)c2[nH]c(-c3cccc(F)c3F)c(O)c(=O)c12 [Example 96, 1-Cyclopropyl-6-(2,3-difluorophenyl)-5-hydroxy-3-methyl-1H-pyrazolo[3,4-b]pyridin-4(7H)-one]
99.4%	100%	< 50 nM	CCc1nn(CC)c2[nH]c(-c3c(F)cccc3F)c(O)c(=O)c12 [Example 103, 6-(2,6-Difluorophenyl)-1,3-diethyl-5-hydroxy-1,7-dihydro-4H-pyrazolo[3,4-b]pyridin-4-one]

Second part, the compound before the results:

Structure (SMILES)	inhibition at 1 µM	inhibition at 10 µM	IC50
Cn1nc(CO)c2c(=O)c(O)c(-c3ccccc3Cl)[nH]c21 [Example 198, 6-(2-Chlorophenyl)-5-hydroxy-3-(hydroxymethyl)-1-methyl-1H-pyrazolo[3,4-b]pyridin-4(7H)-one]	87.7%	86.7%	50 to 100 nM
CCc1nn(C2CC2)c2[nH]c(-c3c(F)cccc3F)c(O)c(=O)c12 [Example 140, 1-Cyclopropyl-6-(2,6-difluorophenyl)-3-ethyl-5-hydroxy-1H-pyrazolo[3,4-b]pyridin-4(7H)-one]	100%	100%	50 to 100 nM
COc1c(-c2ccccc2Cl)[nH]c2c(c(C)nn2C)c1=O [Example 233, 6-(2-chlorophenyl)-5-methoxy-1,3-dimethyl-1H-pyrazolo[3,4-b]pyridin-4(7H)-one]	32.8%	69.7%	
CCc1nn(CC2CCOCC2)c2[nH]c(-c3c(F)cccc3F)c(O)c(=O)c12 [Example 207, 6-(2,6-Difluorophenyl)-3-ethyl-5-hydroxy-1-((tetrahydro-2H-pyran-4-yl)methyl)-1H-pyrazolo[3,4-b]pyridin-4(7H)-one]	87.8%	88.2%	50 to 100 nM
CCn1nc(C)c2c(=O)c(OC)c(-c3c(F)cccc3F)[nH]c21 [Example 234]	25.8%	70.2%	
Cc1n[nH]c2[nH]c(-c3c(F)cccc3F)c(O)c(=O)c12 [Example 106, 6-(2,6-Difluorophenyl)-5-hydroxy-3-methyl-1,7-dihydro-4H-pyrazolo[3,4-b]pyridin-4-one]	100%	100%	50 to 100 nM
Cn1nc(CC2CCOCC2)c2c(=O)c(O)c(-c3c(F)cccc3F)[nH]c21 [Example 209, 6-(2,6-Difluorophenyl)-5-hydroxy-1-methyl-3-((tetrahydro-2H-pyran-4-yl)methyl)-1H-pyrazolo[3,4-b]pyridin-4(7H)-one]	89.5%	89.8%	50 to 100 nM
CCCn1nc(C)c2c(=O)c(O)c(-c3ccc(OC)cc3F)[nH]c21 [Example 82, 6-(2-Fluoro-4-methoxyphenyl)-5-hydroxy-3-methyl-1-propyl-1H-pyrazolo[3,4-b]pyridin-4(7H)-one]	87.5%		50 to 100 nM
Cn1nc(C(F)(F)F)c2c(=O)c(O)c(-c3ccncc3)[nH]c21 [Example 55, 5-Hydroxy-1-methyl-6-(pyridin-4-yl)-3-(trifluoromethyl)-1,7-dihydro-4H-pyrazolo[3,4-b]pyridin-4-one]	83.8%	94.2%	> 150 nM
CCn1ncc2c(=O)c(O)c(-c3c(F)cccc3F)[nH]c21 [Example 105, 6-(2,6-Difluorophenyl)-1-ethyl-5-hydroxy-1,7-dihydro-4H-pyrazolo[3,4-b]pyridin-4-one]	99.1%	100%	> 150 nM
Cc1nn(-c2ccc(F)cc2Cl)c2[nH]c(-c3c(F)cccc3F)c(O)c(=O)c12 [Example 139, 1-(2-Chloro-4-fluorophenyl)-6-(2,6-difluorophenyl)-5-hydroxy-3-methyl-1H-pyrazolo[3,4-b]pyridin-4(7H)-one]	99%	100%	50 to 100 nM
CCc1nn(CCN2CCN(C)CC2)c2[nH]c(-c3ccccc3Cl)c(O)c(=O)c12 [Example 165, 6-(2-Chlorophenyl)-3-ethyl-5-hydroxy-1-(2-(4-methylpiperazin-1-yl)ethyl)-1H-pyrazolo[3,4-b]pyridine-4(7H)-one]	99.9%	80.1%	< 50 nM
Cc1nn(C)c2[nH]c(-c3ccc(F)c(F)c3)c(O)c(=O)c12 [Example 17, 6-(3,4-Difluorophenyl)-5-hydroxy-1,3-dimethyl-1,7-dihydro-4H-pyrazolo[3,4-b]pyridin-4-one]	63.9%		
Cn1ncc2c(=O)c(O)c(-c3ccccc3Cl)[nH]c21 [Example 3, 6-(2-Chlorophenyl)-5-hydroxy-1-methyl-1,7-dihydro-4H-pyrazolo[3,4-b]pyridin-4-one]	93.7%	100%	100 to 150 nM
O=c1c(O)c(-c2ccccc2Cl)[nH]c2c1cnn2-c1ccc(F)cc1 [Example 10, 6-(2-Chlorophenyl)-1-(4-fluorophenyl)-5-hydroxy-1,7-dihydro-4H-pyrazolo[3,4-b]pyridin-4-one]	100%	100%	< 50 nM
Cc1nn(C)c2[nH]c(-c3ccc(C(F)(F)F)c(F)c3)c(O)c(=O)c12 [Example 22, 6-[3-Fluoro-4-(trifluoromethyl)phenyl]-5-hydroxy-1,3-dimethyl-1,7-dihydro-4H-pyrazolo[3,4-b]pyridin-4-one]	100%	80.9%	> 150 nM
CCn1nc(C)c2c(=O)c(O)c(-c3ccc(OC)cc3F)[nH]c21 [Example 69, 1-Ethyl-6-(2-fluoro-4-methoxyphenyl)-5-hydroxy-3-methyl-1H-pyrazolo[3,4-b]pyridin-4(7H)-one]	67.2%		> 150 nM
